The test system of one test is DOHH2 cells. Briefly: Cell proliferation assay (MTS), DOHH2 cells, 120 h. It counts as cell-based. In outline: (§1)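 Treatment lasts 72 h for RS4;11 and 120 h for DOHH2 cells seeded at 5000 per well in serum-containing RPMI-1640. A 2 h MTS step, halted with 10% SDS, precedes dual-wavelength absorbance reading and IC50 fitting.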
The subject of a further test is RS4;11 cells. Description: Cell proliferation assay (MTS), RS4;11 cells, 72 h. It counts as cell-based. The method, boiled down: as §1

Data on seven compounds can be found in patent US11091478B2 (Fochon Pharmaceuticals, Ltd., priority 2017, dated 2021).

Where two headings read alike, the source gives them in different places.

As usually defined, the IC50 is the concentration at which inhibition is half-maximal. Lower therefore signals greater potency. With `CO[C@H]1CC[C@H](OC[C@@H]2COc3cc(S(=O)(=O)NC(=O)c4ccc(N5CCN(CC6=C(c7ccc(Cl)cc7)CC(C)(C)CC6)CC5)cc4Oc4cnc5[nH]ccc5c4)cc([N+](=O)[O-])c3N2)CC1` [Example 2-251, 2-((1H-pyrrolo[2,3-b]pyridin-5-yl)oxy)-4-(4-((4′-chloro-5,5-dimethyl-3,4,5,6-tetrahydro-[1,1′-biphenyl]-2-yl)methyl)piperazin-1-yl)-N-(((R)-3-((((1r,4R)-4-methoxycyclohex-yl)oxy)methyl)-5-nitro-3,4-dihydro-2H-benzo[b][1,4]oxazin-7-yl)sulfonyl)benzamide], the half-inhibitory concentration (IC50) stood at 44 nM in the test with DOHH2 cells (Homo sapiens, DOHH-2, 120 h) and 1 nM in the test with RS4;11 cells (Homo sapiens, RS4-11, 72 h).

In the case of `CC1(C)CCC(CN2CCN(c3ccc(C(=O)NS(=O)(=O)c4cc5c(c([N+](=O)[O-])c4)N[C@H](C4CCC(O)CC4)CO5)c(Oc4cnc5[nH]ccc5c4)c3)CC2)=C(c2ccc(Cl)cc2)C1` (single isomer, unassigned) [Example 2-240B], the IC50 in the test with DOHH2 cells and with RS4;11 cells was 1 nM throughout.

For `CC1(C)CCC(CN2CCN(c3ccc(C(=O)NS(=O)(=O)c4cc5c(c([N+](=O)[O-])c4)N[C@@H](CCN4CCN(C6COC6)CC4)CO5)c(Oc4cnc5[nH]ccc5c4)c3)CC2)=C(c2ccc(Cl)cc2)C1` [Example 2-48, (S)-2-((1H-pyrrolo[2,3-b]pyridin-5-yl)oxy)-4-(4-((4′-chloro-5,5-dimethyl-3,4,5,6-tetra-hydro-[1,1′-biphenyl]-2-yl)methyl)piperazin-1-yl)-N-((5-nitro-3-(2-(4-(oxetan-3-yl)piper-azin-1-yl)ethyl)-3,4-dihydro-2H-benzo [b][1,4]oxazin-7-yl)sulfonyl)benzamide], the concentration for half-maximal inhibition (IC50) worked out at 9 nM in the test with DOHH2 cells (Homo sapiens, DOHH-2, 120 h) and 14 nM with RS4;11 cells (Homo sapiens, RS4-11, 72 h).

As for `CC1(C)CCC(CN2CCN(c3ccc(C(=O)NS(=O)(=O)c4cc5c(c([N+](=O)[O-])c4)N[C@@H](COC(=O)N4CCOCC4)CO5)c(Oc4cnc5[nH]ccc5c4)c3)CC2)=C(c2ccc(Cl)cc2)C1` [Example 2-117, (R)-(7-(N-(2-((1H-pyrrolo[2,3-b]pyridin-5-yl)oxy)-4-(4-((4′-chloro-5,5-dimethyl-3,4,5,6-tetrahydro-[1,1′-biphenyl]-2-yl)methyl)piperazin-1-yl)benzoyl)sulfamoyl)-5-nitro-3,4-dihydro-2H-benzo[b][1,4]oxazin-3-yl)methyl morpholine-4-carboxylate], the half-inhibitory concentration (IC50) came out at 41 nM with DOHH2 cells (Homo sapiens, DOHH-2, 120 h) and 44 nM with RS4;11 cells (Homo sapiens, RS4-11, 72 h).

On to `CC1(C)CCC(CN2CCN(c3ccc(C(=O)NS(=O)(=O)c4cc5c(c([N+](=O)[O-])c4)N[C@H](Cc4ccccc4Cl)CO5)c(Oc4cnc5[nH]ccc5c4)c3)CC2)=C(c2ccc(Cl)cc2)C1` [Example 2-159, (R)-2-((1H-pyrrolo[2,3-b]pyridin-5-yl)oxy)-4-(4-((4′-chloro-5,5-dimethyl-3,4,5,6-tetra-hydro-[1,1′-biphenyl]-2-yl)methyl)piperazin-1-yl)-N-((3-(2-chlorobenzyl)-5-nitro-3,4-dihydro-2H-benzo[b][1,4]oxazin-7-yl)sulfo-nyl)benzamide], for which the IC50 in the test with DOHH2 cells (Homo sapiens, DOHH-2, 120 h) was found to be 47 nM; with RS4;11 cells (Homo sapiens, RS4-11, 72 h) it was 29 nM.

As to `CC(C)[C@@H]1COc2cc(S(=O)(=O)NC(=O)c3ccc(N4CCN(CC5=C(c6ccc(Cl)cc6)CC(C)(C)CC5)CC4)cc3Oc3cnc4[nH]ccc4c3)cc([N+](=O)[O-])c2N1` [Example 2-108, (R)-2-((1H-pyrrolo[2,3-b]pyridin-5-yl)oxy)-4-(4-((4′-chloro-5,5-dimethyl-3,4,5,6-tetra-hydro-[1,1′-biphenyl]-2-yl)methyl)piperazin-1-yl)-N-((3-isopropyl-5-nitro-3,4-dihydro-2H-benzo[b][1,4]oxazin-7-yl)sulfonyl) benzamide], the 50% inhibitory concentration (IC50) was determined as 51 nM with DOHH2 cells (Homo sapiens, DOHH-2, 120 h) and 16 nM with RS4;11 cells (Homo sapiens, RS4-11, 72 h).

Take `CN(C)C[C@@H]1Cc2cc(S(=O)(=O)NC(=O)c3ccc(N4CCN(CC5=C(c6ccc(Cl)cc6)CC(C)(C)CC5)CC4)cc3Oc3cnc4[nH]ccc4c3)cc([N+](=O)[O-])c2N1` [Example 1-5]: the half-maximal inhibitory concentration (IC50) was determined as 211 nM in the test on DOHH2 cells (Homo sapiens, DOHH-2, 120 h) and 51 nM in the test on RS4;11 cells (Homo sapiens, RS4-11, 72 h).
